Data published in article PMC3674958 (Investigational new drugs, 2012).

Key:
[1] = Plasma pharmacokinetics of irinotecan and its metabolites; conditions: human, iv
plasma proteins = test: Sorafenib fraction unbound in patient plasma by equilibrium dialysis; format: in vitro ADME; conditions: human
clinical = conditions: human, in vivo, 400 mg

Compound	Tmax ([1]; 100 mg/m2)	Tmax ([1]; 120 mg/m2)	fraction unbound (plasma proteins)	Cmax (clinical; Cmax)	Tmax (clinical; Tmax)
CCc1c2c(nc3ccc(OC(=O)N4CCC(N5CCCCC5)CC4)cc13)-c1cc3c(c(=O)n1C2)COC(=O)[C@]3(O)CC [Irinotecan]	1.4 h	1.4 h	–	–	–
CNC(=O)c1cc(Oc2ccc(NC(=O)Nc3ccc(Cl)c(C(F)(F)F)c3)cc2)ccn1 [Sorafenib, reference compound]	–	–	0.0027 to 0.0067	4710 ± 3520 ng/mL	4.1 h
